Results reported in patent US20050026911A1, “Benzotriazapinone salts and methods for using same” (priority 2003, published 2005).

Each molecule was assayed against T1, gastrin (CCK2) receptors (Rattus norvegicus, UniProt P30553) (assay: gastrin (CCK2) antagonist activity in an immature rat stomach assay). Conditions: pentagastrin dose-response curves, acid secretion, read-out: pKB rat stomach (converted).
T1 construct: The stomach was excised and flushed with ca. 1 ml of unbuffered physiological saline solution; from tissue; host or cells: isolated whole stomach of immature rats (ca. 21 days old)
T1 sequence (P30553 1-452): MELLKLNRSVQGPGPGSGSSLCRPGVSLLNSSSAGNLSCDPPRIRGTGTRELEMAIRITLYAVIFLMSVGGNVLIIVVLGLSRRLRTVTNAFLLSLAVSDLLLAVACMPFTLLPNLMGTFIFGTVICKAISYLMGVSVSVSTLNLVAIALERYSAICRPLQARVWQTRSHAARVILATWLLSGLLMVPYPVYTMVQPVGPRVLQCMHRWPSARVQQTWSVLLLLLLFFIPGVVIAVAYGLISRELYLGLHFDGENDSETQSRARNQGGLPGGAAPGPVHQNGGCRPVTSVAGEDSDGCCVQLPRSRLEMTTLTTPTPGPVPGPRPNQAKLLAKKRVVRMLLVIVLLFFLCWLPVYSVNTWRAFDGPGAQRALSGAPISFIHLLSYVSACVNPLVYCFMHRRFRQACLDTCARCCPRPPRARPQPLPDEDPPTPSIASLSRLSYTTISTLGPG
Procedure: The compounds of the examples were tested for gastrin (CCK2) antagonist activity in an immature rat stomach assay. The procedure was as follows:
The oesophagus of immature rats (33-50 g, ca. 21 days old) was ligated at the level of the cardiac sphincter and the duodenal sphincter was cannulated. The stomach was excised and flushed with ca. 1 ml of unbuffered physiological saline solution. The fundus was punctured and cannulated. A further 4-5 ml of unbuffered solution was flushed through the stomach to ensure the preparation was not leaking. […] The stomach was continuously perfused at a rate of 1 ml min^−1 with unbuffered solution gassed with 100% O2 with the perfusate passing over an internally referenced pH-electrode fixed 12 cm above the stomach.
After 120 min of stabilisation the drugs were added directly to the serosal solution in the organ bath and after a further 60 min cumulative pentagastrin dose-response curves were started.

Row | SMILES | Kb
1 | CC(C)(C)C(=O)CN1C(=O)N(CC(=O)Nc2cccc(SCC(=O)O)c2)N=C(C2CCCCC2)c2ccccc21 [Example 38, (3-{2-[5-Cyclohexyl-1-(3,3-dimethyl-2-oxo-butyl)-2-oxo-1,2-dihydro-3H-1,3,4-benzotriazepin-3-yl]-acetylamino}-phenylsulfanyl)-acetic acid] | 6.61 nM
2 | Cc1nc(-c2cccc(NC(=O)CN3N=C(C4CCCCC4)c4ccccc4N(CC(=O)C(C)(C)C)C3=O)c2)cs1 [Example 107] | 3.31 nM
3 | CC1(C(=O)CN2C(=O)N(CC(=O)Nc3cccc(CC(=O)O)c3)N=C(C3CCCCC3)c3ccccc32)CCCC1 [Example 82, [3-(2-{5-Cyclohexyl-1-[2-(1-methyl-cyclopentyl)-2-oxo-ethyl]-2-oxo-1,2-dihydro-3H-1,3,4-benzotriazepin-3-yl}-acetylamino)-phenyl]-acetic acid] | 9.55 nM
4 | CC(C)(C)C(=O)CN1C(=O)N(CC(=O)Nc2cccc(-c3ccc(C(=O)O)cc3)c2)N=C(C2CCCCC2)c2ccccc21 [Example 146, 3′-{2-[5-Cyclohexyl-1-(3,3-dimethyl-2-oxo-butyl)-2-oxo-1,2-dihydro-3H-1,3,4-benzotriazepin-3-yl]-acetylamino}-biphenyl-4-carboxylic acid] | 7.08 nM
5 | CNc1cc(NC)cc(NC(=O)CN2N=C(C3CCCCC3)c3ccccc3N(CC(=O)C(C)(C)C)C2=O)c1 [Example 104, N-(3,5-Bis-methylamino-phenyl)-2-[5-cyclohexyl-1-(3,3-dimethyl-2-oxo-butyl)-2-oxo-1,2-dihydro-3H-1,3,4-benzotriazepin-3-yl]-acetamide] | 44.7 nM
6 | O=C(O)Cn1ccc2ccc(NC(=O)CN3N=C(C4CCCCC4)c4ccccc4N(CC(=O)C4CCCC4)C3=O)cc21 [Example 126, (6-{2-[5-Cyclohexyl-1-(2-cyclopentyl-2-oxo-ethyl)-2-oxo-1,2-dihydro-3H-1,3,4-benzotriazepin-3-yl]-acetylamino}-indol-1-yl)-acetic acid] | 0.0575 nM
7 | C=C(CN1C(=O)N(CC(=O)Nc2cccc(CC(=O)O)c2)N=C(C2CCCCC2)c2ccccc21)C(C)(C)C [Example 152, (3-{2-[1-(2-tert-Butyl-allyl)-5-cyclohexyl-2-oxo-1,2-dihydro-3H-1,3,4-benzotriazepin-3-yl]-acetylamino}-phenyl)-acetic acid] | 50.1 nM
8 | O=C(CN1N=C(C2CCCCC2)c2ccccc2N(CC(=O)C2CCCC2)C1=O)Nc1cccc(-c2csc(C(=O)O)n2)c1 [Example 137, 4-(3-{2-[5-Cyclohexyl-1-(2-cyclopentyl-2-oxo-ethyl)-2-oxo-1,2-dihydro-3H-1,3,4-benzotriazepin-3-yl]-acetylamino}-phenyl)-thiazole-2-carboxylic acid] | 2.88 nM
9 | CC(C)(C)C(=O)CN1C(=O)N(CC(=O)Nc2cccc(-n3ccnc3)c2)N=C(C2CCCCC2)c2ccccc21 [Example 89, 2-[5-Cyclohexyl-1-(3,3-dimethyl-2-oxo-butyl)-2-oxo-1,2-dihydro-3H-1,3,4-benzotriazepin-3-yl]-N-[3-(1H-imidazol-1-yl)-phenyl]-acetamide] | 871 nM
10 | CC(C)(C)C(=O)CN1C(=O)N(CC(=O)Nc2cccc3nn(CC(=O)O)cc23)N=C(C2CCCCC2)c2ccccc21 [Example 142, (4-{2-[5-Cyclohexyl-1-(3,3-dimethyl-2-oxo-butyl)-2-oxo-1,2-dihydro-3H-1,3,4-benzotriazepin-3-yl]-acetylamino}-indazol-2-yl)-acetic acid] | 15.5 nM
11 | O=C(O)CSc1cccc(NC(=O)CN2N=C(C3CCCCC3)c3ccccc3N(CC(=O)C3CC3)C2=O)c1 [Example 120, [3-(2-{5-Cyclohexyl-1-(2-cyclopropyl-2-oxo-ethyl)-2-oxo-1,2-dihydro-3H-1,3,4-benzotriazepin-3-yl]-acetylamino}-phenylsulfanyl)-acetic acid] | 37.2 nM
12 | CNc1cccc(NC(=O)CN2N=C(CC(C)C)c3ccccc3N(CC(=O)C(C)(C)C)C2=O)c1 [Example 13, 2-[1-(3,3-Dimethyl-2-oxo-butyl)-5-isobutyl-2-oxo-1,2-dihydro-3H-1,3,4-benzotriazepin-3-yl]-N-(3-methylaminophenyl)-acetamide] | 51.3 nM
13 | O=C(CN1N=C(C2CCCCC2)c2ccccc2N(CC(=O)C2CCCCC2)C1=O)Nc1cccc(-c2nc(=O)o[nH]2)c1 [Example 111, 2-[5-Cyclohexyl-1-(2-cyclohexyl-2-oxo-ethyl)-2-oxo-1,2-dihydro-3H-1,3,4-benzotriazepin-3-yl]-N-[3-(5-oxo-2,5-dihydro-[1,2,4]oxadiazol-3-yl)-phenyl]-acetamide] | 2.19 nM
14 | CC1(C(=O)CN2C(=O)N(CC(=O)Nc3cccc(-c4nc(=O)o[nH]4)c3)N=C(C3CCCCC3)c3ccccc32)CCCC1 [Example 87] | 3.16 nM
15 | CNc1cc(NC(=O)CN2N=C(C3CCCCC3)c3ccccc3N(CC(O)C(C)(C)C)C2=O)cc(C(=O)OC)c1 (centres unmarked) [Example 78, 3-{2-[5-Cyclohexyl-1 (−2-hydroxy-3,3-dimethyl-butyl)-2-oxo-1,2-dihydro-3H-1,3,4-benzotriazepin-3-yl]-acetylamino}-5-methylamino-benzoic acid methyl ester] | 324 nM
16 | O=C(O)CSc1cccc(NC(=O)CN2N=C(C3CCCCC3)c3ccccc3N(CC(=O)C3CCCCC3)C2=O)c1 [Example 100, (3-{2-[5-Cyclohexyl-1-(2-cyclohexyl-2-oxo-ethyl)-2-oxo-1,2-dihydro-3H-1,3,4-benzotriazepin-3-yl]-acetylamino}-phenylsulfanyl)-acetic acid] | 0.575 nM
17 | CC1CCC(C2=NN(CC(=O)Nc3cccc(C(=O)O)c3)C(=O)N(CC(=O)C(C)(C)C)c3ccccc32)CC1 (centres unmarked) [Example 102, 3-{2-[1-(3,3-Dimethyl-2-oxo-butyl)-5-(4-methyl-cyclohexyl)-2-oxo-1,2-dihydro-3H-1,3,4-benzotriazepin-3-yl]-acetylamino}-benzoic acid] | 0.776 nM

Further lines, results first:

Row | Kb | SMILES
18 | 93.3 nM | CC(C)(C)C(=O)CN1C(=O)N(CC(=O)NCc2cccc(C(=O)O)c2)N=C(C2CCCCC2)c2ccccc21 [Example 45, 3-({2-[5-Cyclohexyl-1-(3,3-dimethyl-2-oxo-butyl)-2-oxo-1,2-dihydro-3H-1,3,4-benzotriazepin-3-yl]-acetylamino}-methyl)-benzoic acid]
19 | 27.5 nM | CNc1cc(NC(=O)CN2N=C(C3CCCCC3)c3ccccc3N(CC(=O)C(C)(C)C)C2=O)ccc1OC [Example 105, 2-[5-Cyclohexyl-1-(3,3-dimethyl-2-oxo-butyl)-2-oxo-1,2-dihydro-3H-1,3,4-benzotriazepin-3-yl]-N-(4-methoxy-3-methylamino-phenyl)-acetamide]
20 | 70.8 nM | CC(=O)N/C(=C\c1cccc(NC(=O)CN2N=C(C3CCCCC3)c3ccccc3N(CC(=O)C(C)(C)C)C2=O)c1)C(=O)O [Example 155, 2-Acetylamino-3-(3-{2-[5-cyclohexyl-1-(3,3-dimethyl-2-oxo-butyl)-2-oxo-1,2-dihydro-3H-1,3,4-benzotriazepin-3-yl]-acetylamino}-phenyl)-acrylic acid]
21 | 457 nM | CC(C)(C)C(=O)CN1C(=O)N(CC(=O)Nc2cccc(NS(C)(=O)=O)c2)N=C(C2CCCCC2)c2ccccc21 [Example 26, 2-[5-Cyclohexyl-1-(3,3-dimethyl-2-oxo-butyl)-2-oxo-1,2-dihydro-3H-1,3,4-benzotriazepin-3-yl]-N-(3-methanesulfonylamino-phenyl)-acetamide]
22 | 3.47 nM | CC(C)(C)C(=O)CN1C(=O)N(CC(=O)Nc2cccc(/C=C/C(=O)O)c2)N=C(C2CCCCC2)c2ccccc21 [Example 60, 3-(3-{2-[5-Cyclohexyl-1-(3,3-dimethyl-2-oxo-butyl)-2-oxo-1,2-dihydro-3H-1,3,4-benzotriazepin-3-yl]-acetylamino}-phenyl)-acrylic acid]
23 | 11 nM | CC(C)(C)C(=O)CN1C(=O)N(CC(=O)Nc2cccc(S(=O)(=O)CC(=O)O)c2)N=C(C2CCCCC2)c2ccccc21 [Example 50]
24 | 22.9 nM | CC(C)(C)C(=O)CN1C(=O)N(CC(=O)Nc2cccc(C(=O)NS(C)(=O)=O)c2)N=C(C2CCCCC2)c2ccccc21 [Example 40]
25 | 2.82 nM | COC(=O)c1cccc(NC(=O)CN2N=C(C3CCCCC3)c3ccccc3N(CC(=O)C(C)(C)C)C2=O)c1 [Example 1, 3-{2-[5-Cyclohexyl-1-(3,3-dimethyl-2-oxo-butyl)-2-oxo-1,2-dihydro-3H-1,3,4-benzotriazepin-3-yl]-acetylamino}-benzoic acid methyl ester]
26 | 3.39 nM | CC(C)(C)C(=O)CN1C(=O)N(CC(=O)Nc2cccc(-c3ccc(C(=O)O)o3)c2)N=C(C2CCCCC2)c2ccccc21 [Example 145, 5-(3-{2-[5-Cyclohexyl-1-(3,3-dimethyl-2-oxo-butyl)-2-oxo-1,2-dihydro-3H-1,3,4-benzotriazepin-3-yl]-acetylamino}-phenyl)-furan-2-carboxylic acid]
